# Molecular target: Human Factor D (Homo sapiens (Human), UniProt P00746)
# Assay: Human Factor D Assay
# Format: biochemical
# Conditions: Table 7; read-out: IC5 (Stars)
# Method in brief: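 Serum-purified human factor D (80 nM final) preincubated with compound 5 min at room temperature in 50 mM Tris, 1 M NaCl, pH 7.5. Z-L-Lys-SBzl and DTNB added at 100 μM each; A405 followed every 30 s for 30 min. IC50 by nonlinear regression of rates.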
# Human Factor D, sequence (P00746 26-253): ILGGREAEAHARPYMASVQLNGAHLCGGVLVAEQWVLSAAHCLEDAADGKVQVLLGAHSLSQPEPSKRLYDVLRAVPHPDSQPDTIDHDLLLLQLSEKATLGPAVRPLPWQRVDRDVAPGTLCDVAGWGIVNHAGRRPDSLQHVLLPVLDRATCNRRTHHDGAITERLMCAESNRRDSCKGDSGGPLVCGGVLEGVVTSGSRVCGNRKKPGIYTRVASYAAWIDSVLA
row,Structure (SMILES),IC50
1,"CC(=O)c1nn(CC(=O)N2[C@H](C(=O)Nc3nc(Br)ccc3C)C[C@@]3(C)C[C@@H]23)c2cc3sc(C)nc3cc12 [Compound T-84, (1R,3S,5R)-2-(2-(3-acetyl-6-methyl-1H-thiazolo[4,5-f]indazol-1-yl)acetyl)-N-(6-bromo-3-methylpyridin-2-yl)-5-methyl-2-azabicyclo[3.1.0]hexane-3-carboxamide]",< 1000 nM
2,"CC(=O)c1nn(CC(=O)N2[C@H](C(=O)Nc3nc(Br)ccc3C)C[C@@]3(CNC(=O)COCCOCCNC(=O)COCCOCCNC(=O)CC[C@H](NC(=O)CCCCCCCCCCCCCCCCC(=O)O)C(=O)O)C[C@@H]23)c2ccccc12 [Compound T-85, (S)-1-((1R,3S,5R)-2-(2-(3-acetyl-1H-indazol-1-yl)acetyl)-3-((6-bromo-3-methylpyridin-2-yl)carbamoyl)-2-azabicyclo[3.1.0]hexan-5-yl)-24-carboxy-3,12,21,26-tetraoxo-5,8,14,17-tetraoxa-2,11,20,25-tetraazatritetracontan-43-oic acid]",< 1000 nM
3,"Cc1ccc(Br)nc1NC(=O)[C@@H]1C[C@@]2(C)C[C@H]2N1C(=O)Cn1nc(N2CCCC2=O)c2ccncc21 [Compound T-86, (1R,3S,5R)-N-(6-bromo-3-methylpyridin-2-yl)-5-methyl-2-(2-(3-(2-oxopyrrolidin-1-yl)-1H-pyrazolo[3,4-c]pyridin-1-yl)acetyl)-2-azabicyclo[3.1.0]hexane-3-carboxamide]",> 10000 nM
4,"Cc1ccc(Br)nc1NC(=O)[C@@H]1C[C@@]2(C)C[C@H]2N1C(=O)Cn1nc(N2CCC2=O)c2ccncc21 [Compound T-87, (1R,3S,5R)-N-(6-bromo-3-methylpyridin-2-yl)-5-methyl-2-(2-(3-(2-oxoazetidin-1-yl)-1H-pyrazolo[3,4-c]pyridin-1-yl)acetyl)-2-azabicyclo[3.1.0]hexane-3-carboxamide]",< 1000 nM
5,"Cc1ccc(Br)nc1NC(=O)[C@@H]1C[C@@]2(C)C[C@H]2N1C(=O)Cn1nc(NCCC(=O)O)c2ccncc21 [Compound T-89, 3-((1-(2-((1R,3S,5R)-3-((6-bromo-3-methylpyridin-2-yl)carbamoyl)-5-methyl-2-azabicyclo[3.1.0]hexan-2-yl)-2-oxoethyl)-1H-pyrazolo[3,4-c]pyridin-3-yl)amino)propanoic acid]",> 10000 nM
6,"Cc1ccc(Br)nc1NC(=O)C1CC2(C)CC2N1C(=O)Cn1nc(NCCC(=O)O)c2ccncc21 (stereo not drawn) [Compound T-90, 3-((1-(2-(3-((6-bromo-3-methylpyridin-2-yl)carbamoyl)-5-methyl-2-azabicyclo[3.1.0]hexan-2-yl)-2-oxoethyl)-1H-pyrazolo[3,4-c]pyridin-3-yl)amino)propanoic acid]",> 10000 nM
7,"Cc1ccc(Br)nc1NC(=O)[C@@H]1C[C@@]2(C)C[C@H]2N1C(=O)Cc1cccc(-c2nnn[nH]2)c1 [Compound T-91, (1R,3S,5R)-2-(2-(3-(1H-tetrazol-5-yl)phenyl)acetyl)-N-(6-bromo-3-methylpyridin-2-yl)-5-methyl-2-azabicyclo[3.1.0]hexane-3-carboxamide]",> 10000 nM
8,"CC(=O)c1nn(CC(=O)N2[C@H](C(=O)Nc3nc(Br)ccc3C)C[C@@]3(C)C[C@@H]23)c2ccc(Nc3cccn(-c4ccccn4)c3=O)cc12 [Compound T-92, (1R,3S,5R)-2-(2-(3-acetyl-5-((2-oxo-2H-[1,2′-bipyridin]-3-yl)amino)-1H-indazol-1-yl)acetyl)-N-(6-bromo-3-methylpyridin-2-yl)-5-methyl-2-azabicyclo[3.1.0]hexane-3-carboxamide]",< 1000 nM
9,"CC(=O)c1nn(CC(=O)N2[C@H](C(=O)Nc3nc(Br)ccc3C)C[C@@]3(C)C[C@@H]23)c2cc3nc(C)oc3cc12 [Compound T-93, (1R,3S,5R)-2-(2-(3-acetyl-6-methyl-1H-oxazolo[5,4-f]indazol-1-yl)acetyl)-N-(6-bromo-3-methylpyridin-2-yl)-5-methyl-2-azabicyclo[3.1.0]hexane-3-carboxamide]",< 1000 nM
10,"Cc1ccc(Br)nc1NC(=O)[C@@H]1C[C@@]2(C)C[C@H]2N1C(=O)Cc1ccc2[nH]nc(C#N)c2c1 [Compound T-94, (1R,3S,5R)-N-(6-bromo-3-methylpyridin-2-yl)-2-(2-(3-cyano-1H-indazol-5-yl)acetyl)-5-methyl-2-azabicyclo[3.1.0]hexane-3-carboxamide]",> 10000 nM
11,"COc1ncc(-c2cccc(CC(=O)N3[C@H](C(=O)Nc4nc(Br)ccc4C)C[C@@]4(C)C[C@@H]34)c2)cn1 [Compound T-95, (1R,3S,5R)-N-(6-bromo-3-methylpyridin-2-yl)-2-(2-(3-(2-methoxypyrimidin-5-yl)phenyl)acetyl)-5-methyl-2-azabicyclo[3.1.0]hexane-3-carboxamide]",> 10000 nM
12,"Cc1ccc(Br)nc1NC(=O)[C@@H]1C[C@@]2(C)C[C@H]2N1C(=O)Cc1cccc(-c2cnc(O)nc2)c1 [Compound T-96, (1R,3S,5R)-N-(6-bromo-3-methylpyridin-2-yl)-2-(2-(3-(2-hydroxypyrimidin-5-yl)phenyl)acetyl)-5-methyl-2-azabicyclo[3.1.0]hexane-3-carboxamide]",> 10000 nM
13,"COc1cc(CC(=O)N2[C@H](C(=O)Nc3nc(Br)ccc3C)C[C@@]3(C)C[C@@H]23)cc(-c2cnc(OC)nc2)c1 [Compound T-97, (1R,3S,5R)-N-(6-bromo-3-methylpyridin-2-yl)-2-(2-(3-methoxy-5-(2-methoxypyrimidin-5-yl)phenyl)acetyl)-5-methyl-2-azabicyclo[3.1.0]hexane-3-carboxamide]",1000 to 10000 nM
14,"Cc1ccc(Br)nc1NC(=O)[C@@H]1C[C@@]2(C)C[C@H]2N1C(=O)Cc1ccc2[nH]nc(C(N)=O)c2c1 [Compound T-98, 5-(2-((1R,3S,5R)-3-((6-bromo-3-methylpyridin-2-yl)carbamoyl)-5-methyl-2-azabicyclo[3.1.0]hexan-2-yl)-2-oxoethyl)-1H-indazole-3-carboxamide]",> 10000 nM
15,"Cc1ccc(Br)nc1NC(=O)[C@@H]1C[C@@]2(C)C[C@H]2N1C(=O)Cc1ccc2[nH]nc(Cl)c2c1 [Compound T-99, (1R,3S,5R)-N-(6-bromo-3-methylpyridin-2-yl)-2-(2-(3-chloro-1H-indazol-5-yl)acetyl)-5-methyl-2-azabicyclo[3.1.0]hexane-3-carboxamide]",1000 to 10000 nM
16,"Cc1cc2c(s1)c(C(N)=O)nn2CC(=O)N1[C@H](C(=O)Nc2nc(Br)ccc2C)C[C@@]2(CNC(=O)COCCOCCNC(=O)COCCOCCNC(=O)CC[C@H](NC(=O)CCCCCCCCCCCCCCCCC(=O)O)C(=O)O)C[C@@H]12 [Compound T-100, (S)-1-((1R,3S,5R)-3-((6-bromo-3-methylpyridin-2-yl)carbamoyl)-2-(2-(3-carbamoyl-5-methyl-1H-thieno[3,2-c]pyrazol-1-yl)acetyl)-2-azabicyclo[3.1.0]hexan-5-yl)-24-carboxy-3,12,21,26-tetraoxo-5,8,14,17-tetraoxa-2,11,20,25-tetraazatritetracontan-43-oic acid]",< 1000 nM
17,"COc1cc(CC(=O)N2[C@H](C(=O)Nc3nc(Br)ccc3C)C[C@@]3(C)C[C@@H]23)cc(-c2cnc(O)nc2)c1 [Compound T-101, (1R,3S,5R)-N-(6-bromo-3-methylpyridin-2-yl)-2-(2-(3-(2-hydroxypyrimidin-5-yl)-5-methoxyphenyl)acetyl)-5-methyl-2-azabicyclo[3.1.0]hexane-3-carboxamide]",< 1000 nM
18,"Cc1ccc(Br)nc1NC(=O)[C@@H]1C[C@@]2(C)C[C@H]2N1C(=O)Cc1ccc2[nH]nc(C(=O)O)c2c1 [Compound T-102, 5-(2-((1R,3S,5R)-3-((6-bromo-3-methylpyridin-2-yl)carbamoyl)-5-methyl-2-azabicyclo[3.1.0]hexan-2-yl)-2-oxoethyl)-1H-indazole-3-carboxylic acid]",1000 to 10000 nM
19,"CC(=O)c1nn(CC(=O)N2[C@H](C(=O)Nc3nc(Br)ccc3C)C[C@@]3(C)C[C@@H]23)c2cc3nc(C)sc3cc12 [Compound T-103, (1R,3S,5R)-2-(2-(3-acetyl-6-methyl-1H-thiazolo[5,4-f]indazol-1-yl)acetyl)-N-(6-bromo-3-methylpyridin-2-yl)-5-methyl-2-azabicyclo[3.1.0]hexane-3-carboxamide]",< 1000 nM
20,"Cc1ncc(-c2cc(CC(=O)N3C[C@H](F)C[C@H]3C(=O)Nc3cccc(-c4ccccc4Cl)c3F)cc(-c3cnc(C)nc3)c2)cn1 [Compound T-104, (2S,4R)-1-(2-(3,5-bis(2-methylpyrimidin-5-yl)phenyl)acetyl)-N-(2′-chloro-2-fluoro-[1,1′-biphenyl]-3-yl)-4-fluoropyrrolidine-2-carboxamide]",> 10000 nM
21,"CC(=O)c1cc(CC(=O)N2C[C@H](F)C[C@H]2C(=O)Nc2cccc(Br)n2)cc(-c2cnc(C)nc2)c1 [Compound T-105, (2S,4R)-1-(2-(3-acetyl-5-(2-methylpyrimidin-5-yl)phenyl)acetyl)-N-(6-bromopyridin-2-yl)-4-fluoropyrrolidine-2-carboxamide]",< 1000 nM
22,"CC(=O)c1cc(CC(=O)N2[C@H](C(=O)Nc3nc(Br)ccc3C)C[C@@]3(C)C[C@@H]23)cc(-c2cnc(C)nc2)c1 [Compound T-106, (1R,3S,5R)-2-(2-(3-acetyl-5-(2-methylpyrimidin-5-yl)phenyl)acetyl)-N-(6-bromo-3-methylpyridin-2-yl)-5-methyl-2-azabicyclo[3.1.0]hexane-3-carboxamide]",< 1000 nM
23,"CC(=O)c1cc(CC(=O)N2C[C@H](F)C[C@H]2C(=O)Nc2cccc(-c3ccccc3Cl)c2F)cc(-c2cnc(C)nc2)c1 [Compound T-107, (2S,4R)-1-(2-(3-acetyl-5-(2-methylpyrimidin-5-yl)phenyl)acetyl)-N-(2′-chloro-2-fluoro-[1,1′-biphenyl]-3-yl)-4-fluoropyrrolidine-2-carboxamide]",< 1000 nM
24,"COc1ncc(-c2cc(CC(=O)N3C[C@H](F)C[C@H]3C(=O)Nc3cccc(Br)n3)cc(-c3cnc(OC)nc3)c2)cn1 [Compound T-108, (2S,4R)-1-(2-(3,5-bis(2-methoxypyrimidin-5-yl)phenyl)acetyl)-N-(6-bromopyridin-2-yl)-4-fluoropyrrolidine-2-carboxamide]",> 10000 nM

# Reference: US11447465B2, “Pharmaceutical compounds for treatment of medical disorders” (Achillion Pharmaceuticals, Inc., priority 2017, dated 2022)
